Values after ≈ are worked out from the molar mass of the structure shown.
Key:
in vitro [1] = details: human, cryopreserved hepatocytes
[2] = Half life in Beagle dog at 0.5 mg/kg, iv administered as 10 mins infusion via catheter by LC-MS/MS analysis; details: in vivo
in vivo [3] = details: CD1, mouse, po, 5 mg/kg
Description: Half-life in CD1 mouse at 5 mg/kg, po administered as single esophageal gavage dose post 12 hr fasting using PEG-200/water formulation measured after 24 hrs by LC-MS/MS analysis

in vitro [4] = details: dog, cryopreserved hepatocytes
in vivo [5] = details: male, Sprague-Dawley, rat, po
Description: Half-life in male Sprague-Dawley rat at 2.5 mg/kg, po administered as single gavage dose using PEG-200/water formulation measured after 24 hrs by LC-MS/MS analysis

[6] = biological target: Cytochrome P450 2C9 (Homo sapiens) (UniProt P11712)
in vivo [7] = details: Balb/c, mouse, plasma, po, 10 mg/kg
Neutrophil = test: Inhibition of dog neutrophil cell migration; details: Canis lupus familiaris
[8] = Half-life in plasma of Balb/c mouse model of DSS-induced colitis at 10 mg/kg, po administered using PEG-200/water formulation starting from day 1 to 11 measured by LC-MS analysis
physchem [9] = details: aqueous solution with 2% DMSO, pH 3
in vivo [10] = details: male, Sprague-Dawley, rat, po; remark: listed apart in the source
Mus musculus = organism: Mus musculus; test: Antiinflammatory activity in Balb/cj mouse model of DSS-induced colitis assessed as minimum effective dose; details: read-out: MED
in vivo [11] = details: CD1, mouse, po, 5 mg/kg; remark: listed apart in the source
Cytochrome P450 2C19 = Cytochrome P450 2C19 (Homo sapiens, UniProt P33261); test: Inhibition of CYP2C19 in human liver microsomes using probe substrate and in presence of co-factor preincubated for 20 mins followed by substrate addition by LC-MS/MS analysis
Cytochrome P450 2C19, sequence (P33261 whole entry): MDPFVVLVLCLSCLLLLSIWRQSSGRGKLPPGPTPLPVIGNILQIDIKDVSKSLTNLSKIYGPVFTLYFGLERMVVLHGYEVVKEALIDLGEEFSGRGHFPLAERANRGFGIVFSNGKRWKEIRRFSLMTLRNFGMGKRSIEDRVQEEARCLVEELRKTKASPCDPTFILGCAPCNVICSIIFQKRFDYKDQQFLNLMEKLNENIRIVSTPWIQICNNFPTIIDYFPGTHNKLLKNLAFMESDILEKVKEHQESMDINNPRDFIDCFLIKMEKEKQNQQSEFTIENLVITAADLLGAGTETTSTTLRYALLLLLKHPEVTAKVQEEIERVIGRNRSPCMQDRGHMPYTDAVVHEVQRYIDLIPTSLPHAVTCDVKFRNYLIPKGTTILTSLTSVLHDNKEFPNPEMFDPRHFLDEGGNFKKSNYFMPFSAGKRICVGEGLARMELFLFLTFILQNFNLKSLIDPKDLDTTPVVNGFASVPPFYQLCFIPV

[12] = Half-life in CD1 mouse at 1 mg/kg, iv administered as single bolus dose using PEG-200/saline formulation measured after 24 hrs by LC-MS/MS analysis; details: in vivo
in vitro [13] = details: mouse, cryopreserved hepatocytes
[14] = Volume of distribution at steady state in Beagle dog at 0.5 mg/kg, iv administered as 10 mins infusion via catheter by LC-MS/MS analysis; details: in vivo
[15] = Volume of distribution at steady state in CD1 mouse at 1 mg/kg, iv administered as single bolus dose using PEG-200/saline formulation measured after 24 hrs by LC-MS/MS analysis; details: in vivo
[16] = Thermodynamic solubility of compound at pH 7.4; details: buffer
[17] = Plasma protein binding in dog at 5 uM measured after 4 hrs by LC-MS/MS analysis
in vitro [18] = details: dog, cryopreserved hepatocytes; remark: listed apart in the source
in vivo [19] = details: Beagle, dog, iv, 0.5 mg/kg
Cytochrome P450 1A2 = biological target: T1, Cytochrome P450 1A2 (Homo sapiens, UniProt P05177); test: Inhibition of CYP1A2 in human liver microsomes using probe substrate and in presence of co-factor preincubated for 20 mins followed by substrate addition by LC-MS/MS analysis
T1 sequence (P05177 whole entry): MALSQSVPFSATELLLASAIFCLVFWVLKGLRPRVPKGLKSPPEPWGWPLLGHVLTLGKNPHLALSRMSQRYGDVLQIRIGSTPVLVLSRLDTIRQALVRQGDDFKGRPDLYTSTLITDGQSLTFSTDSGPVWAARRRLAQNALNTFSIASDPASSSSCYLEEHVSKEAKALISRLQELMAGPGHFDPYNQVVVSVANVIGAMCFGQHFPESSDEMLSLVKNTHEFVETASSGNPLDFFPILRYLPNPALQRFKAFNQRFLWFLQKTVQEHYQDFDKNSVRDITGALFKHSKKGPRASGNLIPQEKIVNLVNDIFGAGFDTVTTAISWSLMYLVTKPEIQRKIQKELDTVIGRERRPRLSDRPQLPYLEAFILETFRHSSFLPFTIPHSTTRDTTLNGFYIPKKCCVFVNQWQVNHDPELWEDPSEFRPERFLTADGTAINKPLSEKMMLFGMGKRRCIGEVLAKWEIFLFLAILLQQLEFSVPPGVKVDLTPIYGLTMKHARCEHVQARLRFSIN

Cytochrome P450 3A4 [20] = biological target: T2, Cytochrome P450 3A4 (Homo sapiens, UniProt P08684); test: Time-dependent inhibition of CYP3A4 in human liver microsomes using testosterone as substrate and in presence of co-factor by LC-MS/MS analysis
T2 sequence (P08684 whole entry): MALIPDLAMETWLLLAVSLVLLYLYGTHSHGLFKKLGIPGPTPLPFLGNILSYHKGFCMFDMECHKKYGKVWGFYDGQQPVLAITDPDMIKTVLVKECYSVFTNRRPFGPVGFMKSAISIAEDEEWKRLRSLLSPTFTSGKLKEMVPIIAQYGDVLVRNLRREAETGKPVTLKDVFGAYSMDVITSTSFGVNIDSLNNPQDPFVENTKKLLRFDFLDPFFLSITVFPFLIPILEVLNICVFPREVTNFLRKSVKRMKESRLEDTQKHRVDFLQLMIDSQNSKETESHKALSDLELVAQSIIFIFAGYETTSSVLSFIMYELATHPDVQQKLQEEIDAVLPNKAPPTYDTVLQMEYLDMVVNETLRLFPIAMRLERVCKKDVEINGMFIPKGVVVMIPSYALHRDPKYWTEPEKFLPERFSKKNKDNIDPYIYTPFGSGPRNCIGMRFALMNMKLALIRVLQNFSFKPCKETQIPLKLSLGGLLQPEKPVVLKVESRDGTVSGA

[21] = Clearance in CD1 mouse at 1 mg/kg, iv administered as single bolus dose using PEG-200/saline formulation measured after 24 hrs by LC-MS/MS analysis; details: in vivo
in vitro [22] = details: dog, liver microsomes
in vitro [23] = details: human, liver microsomes
physchem [24] = details: aqueous solution with 2% DMSO, pH 7.4
[25] = Clearance in male Sprague-Dawley rat at 0.5 mg/kg, iv administered as single bolus dose using PEG-200/NaCl formulation measured after 24 hrs by LC-MS/MS analysis; details: in vivo
in vivo [26] = details: Balb/c, mouse, plasma, po, 3 mg/kg
[27] = Thermodynamic solubility of compound at pH 3; details: buffer
in vivo [28] = details: Beagle, dog, po
Description: Half life in Beagle dog at 2.5 mg/kg, po administered as single dose via gavage by LC-MS/MS analysis

in vitro [29] = details: mouse, cryopreserved hepatocytes; remark: listed apart in the source
in vitro [30] = details: human, cryopreserved hepatocytes; remark: listed apart in the source
in vivo [31] = details: Beagle, dog, po; remark: listed apart in the source
in vivo [32] = details: CD1, mouse, iv, 1 mg/kg
in vivo [33] = details: male, Sprague-Dawley, rat, po; remark: listed apart in the source
[34] = Plasma protein binding in human at 5 uM measured after 4 hrs by LC-MS/MS analysis
[35] = Apparent permeability from apical to basolateral in human Caco2 cells at 10 uM measured after 60 mins by lucifer yellow dye based LC-MS/MS analysis; details: Caco-2
in vitro [36] = details: rat, liver microsomes
Cytochrome P450 3A4 [37] = biological target: T2, Cytochrome P450 3A4; test: Inhibition of human CYP3A4 in human liver microsomes using testosterone as substrate and in presence of co-factor preincubated for 20 mins followed by substrate addition by LC-MS/MS analysis
in vivo [38] = details: male, Sprague-Dawley, rat, po; remark: listed apart in the source
[39] = Initial plasma concentration in CD1 mouse at 1 mg/kg, iv administered as single bolus dose using PEG-200/saline formulation measured after 24 hrs by LC-MS/MS analysis

Cytochrome P450 2C9 (Homo sapiens), sequence (P11712 whole entry, looked up): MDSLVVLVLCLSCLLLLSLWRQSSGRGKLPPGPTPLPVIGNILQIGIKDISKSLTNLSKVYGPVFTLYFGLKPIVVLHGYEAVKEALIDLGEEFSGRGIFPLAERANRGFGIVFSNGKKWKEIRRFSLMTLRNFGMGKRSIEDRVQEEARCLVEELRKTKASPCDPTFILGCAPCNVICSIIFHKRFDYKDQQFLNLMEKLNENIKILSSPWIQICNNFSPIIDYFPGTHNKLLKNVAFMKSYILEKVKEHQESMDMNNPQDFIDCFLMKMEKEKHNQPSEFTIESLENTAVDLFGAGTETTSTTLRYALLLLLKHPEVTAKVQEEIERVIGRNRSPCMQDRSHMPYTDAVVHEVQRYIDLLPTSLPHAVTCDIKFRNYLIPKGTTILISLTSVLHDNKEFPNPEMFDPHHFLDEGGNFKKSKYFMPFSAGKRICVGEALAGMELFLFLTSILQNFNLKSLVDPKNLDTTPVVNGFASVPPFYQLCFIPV

half-life at 1 µM (in vitro [1]): > 3.33 h | half-life at […] [2]: 1.4 h | half-life at 24 h (in vivo [3]): 1.9 h | half-life at 1 µM (in vitro [4]): > 3.33 h | half-life at 24 h (in vivo [5]): 1.3 h | IC50 [6]: 34.6 µM | Tmax (in vivo [7]): 1 h | IC50 (Neutrophil): 0.075 µM | half-life [8]: 2.3 h | solubility (physchem [9]): 113 µg/mL (≈ 299 µM) | Cmax at 24 h (in vivo [10]): 1160 ng/mL | bioavailability at 24 h (in vivo [11]): > 100% | IC50 (Cytochrome P450 2C19): > 100 µM | half-life at 24 h [12]: 0.6 h | CLint scaled at 1 µM (in vitro [13]): < 72.8 mL/min/kg | Vd at […] [14]: 2 L/kg | Vd at 24 h [15]: 0.6 L/kg | solubility thermodynamic [16]: 7.75 µg/mL (≈ 20.5 µM) | fraction unbound at 4 h, 5 µM [17]: 0.065 | CLint scaled at 1 µM (in vitro [18]): < 24.2 mL/min/kg | AUC(0-t) at […] (in vivo [19]): 410 ng·h/mL | IC50 (Cytochrome P450 1A2): > 100 µM | IC50 (Cytochrome P450 3A4 [20]): > 50 µM | clearance at 24 h [21]: 15 mL/min/kg | CLint scaled at 0.5 h, 1 µM (in vitro [22]): 89 mL/min/kg | CLint scaled at 0.5 h, 1 µM (in vitro [23]): < 19.3 mL/min/kg | solubility (physchem [24]): 113 µg/mL (≈ 299 µM) | clearance at 24 h [25]: 11.7 mL/min/kg | Cmax (in vivo [26]): 1840 ng/mL | solubility thermodynamic [27]: 12.6 µg/mL (≈ 33.3 µM) | half-life (in vivo [28]): 2 h | half-life at 1 µM (in vitro [29]): > 3.33 h | CLint scaled at 1 µM (in vitro [30]): < 21.3 mL/min/kg | bioavailability (in vivo [31]): > 100% | AUC(0-t) at 24 h (in vivo [32]): 1050 ng·h/mL | bioavailability at 24 h (in vivo [33]): > 100% | fraction unbound at 4 h, 5 µM [34]: 0.028 | Papp A→B at 1 h, 10 µM [35]: 41.9 ×10⁻⁶ cm/s | CLint scaled at 0.5 h, 1 µM (in vitro [36]): 66.7 mL/min/kg | IC50 (Cytochrome P450 3A4 [37]): > 50 µM | AUC(0-t) at 24 h (in vivo [38]): 4470 ng·h/mL | C0 at 24 h [39]: 1230 ng/mL
Compound: O=c1nc(OC[C@@H]2COCCO2)cc2n1CCc1cc(C#CC3CC3)ccc1-2 [GLPG-1205]
minimal effective dose (Mus musculus): 3 mg/kg

— ChEMBL document CHEMBL4673243, “Discovery of 9-Cyclopropylethynyl-2-((S)-1-[1,4]dioxan-2-ylmethoxy)-6,7-dihydropyrimido[6,1-a]isoquinolin-4-one (GLPG1205), a Unique GPR84 Negative Allosteric Modulator Undergoing Evaluation in a Phase II Clinical Trial” (J Med Chem, 2020)
